From PubChem BioAssay AID179 (DTP/NCI, 2004)
The source made the active and inactive calls.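 How the source made its calls: active means compounds giving half or more protection of infected cells from virus-caused growth loss, again on retest; inactive means the rest.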

System: CEM cells HIV-1 protection, formazan growth assay
Assay: NCI AIDS Antiviral Assay
Settings: for IC50: measured here: growth of uninfected CEM cells
In short: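 Human CEM cells, uninfected and HIV-1-infected, exposed to five drug concentrations; growth measured by soluble formazan assay and scored as percent protection from infection, with protecting compounds retested.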

Structure (SMILES) | EC50 | IC50 | outcome
O=S1(=O)C2C=CCC1C(c1ccccc1)CC2 (configuration not stated) | > 1000 µM | > 1000 µM | 
N#Cc1n[nH]n(-c2ccccc2)c1=O | > 200 µM | > 200 µM | 
Clc1cnc(Oc2ccccc2)c2ccccc12 | > 200 µM | 64.6 µM | 
Brc1ccc2c(-c3csc(-c4c[nH]c5ccccc45)n3)c[nH]c2c1 | > 200 µM | 10.7 µM | 
O=C(N/C(=C/c1cccc([N+](=O)[O-])c1)c1nc2ccc(Cl)cc2[nH]1)c1ccccc1 |  |  | inactive
O=C(O)C1C2CC3CC2CC31 (configuration not stated) |  |  | inactive
CC1CN2COC(=S)SSSSC(=S)OCN3CC(C)N(COC(=S)SSSSC(=S)OCN1CC2C)CC3C (configuration not stated) | > 100 µM | 12 µM | 
CC1=CP(=O)(c2ccccc2)CC1 (configuration not stated) | 0.0631 µM | > 200 µM | 
O=c1c2ccccc2nc(-c2ccc(Br)cc2)n1NC1OC(CO)C(O)C(O)C1O (configuration not stated) |  |  | inactive
CC(NC(=O)NC(C)(C)C)NC(=O)C(N)CC(=O)O (configuration not stated) | > 200 µM | > 200 µM | 
Nc1c(N=Nc2ccc(-c3ccc(N=Nc4c(S(=O)(=O)O)cc5cc(S(=O)(=O)O)c(N=Nc6ccccc6)c(O)c5c4N)cc3)cc2)ccc2c(S(=O)(=O)O)cccc12 |  |  | inactive
CN(C)CCSC(=Nc1ccccc1)N1CCCCC1 | > 123 µM | 20.9 µM | 
O=C(O)c1c(O)ccc(N=Nc2ccc(/C=C/c3ccc(N=Nc4ccc(O)c(C(=O)O)c4O)cc3S(=O)(=O)O)c(S(=O)(=O)O)c2)c1O | > 14.5 µM | > 14.5 µM | 
O=S(=O)(O)c1ccc2c(c1)NN(c1ccc(/C=C/c3ccc(N=Nc4ccc(/C=C/c5ccc(N6Nc7ccc(S(=O)(=O)O)cc7N6)cc5S(=O)(=O)O)c(S(=O)(=O)O)c4)cc3S(=O)(=O)O)c(S(=O)(=O)O)c1)N2 | 12.3 µM | 123 µM | 
CN(/N=C/c1cccc2cccnc12)c1ccc([N+](=O)[O-])cc1 |  |  | inactive
O=S1Nc2c(Cl)cc(Cl)c(Cl)c2S1 (configuration not stated) | > 129 µM | > 129 µM | 
OC1C2CCC3C2CC(C(O)(c2ccccc2)c2ccccc2)C13 (configuration not stated) | > 200 µM | 79.4 µM | 
NCCN.NCCN.O=C[O-].O=C[O-].[Co+3].[O-][Cl+3]([O-])([O-])[O-] |  |  | inactive
Cc1cn(C2CC(O)C(CNC(=O)N(O)C3CC(n4cc(C)c(=O)[nH]c4=O)OC3CO)O2)c(=O)[nH]c1=O (configuration not stated) | > 200 µM | > 200 µM | 
O=C(O)CCC(=O)NC(c1ccccc1)c1ccccc1 | > 200 µM | > 200 µM | 

Structure (SMILES) | EC50 | IC50 | outcome
[O-]c1c2c(nn1-c1ccc(Cl)cc1)c1ccccc1c[n+]2Cc1ccccc1 | > 5.13 µM | > 5.13 µM | 
CC(C)(C)OC(=O)N[C@@H]1C(=O)N2CCCOC12 (some centres not stated) |  |  | inactive
Cn1cnc(CCc2ccccc2)n1 | > 1120 µM | > 1120 µM | 
O=S(=O)(O)CCCCS(=O)(=O)O | > 200 µM | > 200 µM | 
Clc1ccc(C(=C=C(c2ccccc2)c2ccccc2)c2ccc(Cl)cc2)cc1 | > 22.9 µM | > 22.9 µM | 
Clc1cccc(C2SCc3nc4ccccc4n32)c1 (configuration not stated) |  |  | inactive
O=C1Nc2ccccc2C12CCNC2Cc1ccccc1 (configuration not stated) | > 794 µM | 263 µM | 
C/C(=C\c1ccc(N(C)C)cc1)C(=O)O | > 66.1 µM | > 66.1 µM | 
C/C(=N\OC(=O)Nc1ccccc1)c1ccccc1 | > 200 µM | 132 µM | 
CN(C)c1ccc(C(Cc2ccccc2)C2NC(=S)NC2=O)cc1 (configuration not stated) | > 200 µM | 15.5 µM | 
N#Cc1[nH]c(=O)n(-c2ccccc2)c1N | > 200 µM | > 200 µM | 
COC(=O)c1c(C)c(=O)n(C)c(=O)n1C |  |  | inactive
N=C1C=CC(=C(c2ccc(N)cc2)c2ccc(N)cc2)C=C1 |  |  | inactive
CCC(C(=O)c1ccc(OC)c(OC)c1)N(C(=O)C(F)(F)F)C(C)c1ccccc1 (configuration not stated) | > 200 µM | > 200 µM | 
COc1ccc(N2N=NN(C(C)C)/C2=C(/Cl)c2nnnn2-c2ccc(OC)cc2)cc1 | > 200 µM | 9.33 µM | 
O=C(COc1ccc(OCC(=O)N2C(=O)CSC2=Nc2ccccc2)cc1)N1C(=O)CSC1=Nc1ccccc1 | > 200 µM | 25.7 µM | 
O=C1c2ccccc2-c2oc(=O)c3ccccc3c21 | > 40.7 µM | > 40.7 µM | 
COC(=O)C12CN(C)CC(C(=O)OC)(C1=O)C(c1ccccc1)OC2c1ccccc1 (configuration not stated) |  |  | inactive
C[C@H]1CC[C@H]([C@@H](C)[C@H]2[C@@H](O)C[C@H]3[C@@H]4CC[C@H]5C[C@@H](O)CC[C@]5(C)[C@H]4CC[C@]23C)NC1 | > 200 µM | 12.6 µM | 
Cc1nc(NS(=O)(=O)c2ccc(NC(=O)c3ccccc3SC(=O)CCCC[n+]3ccccc3)cc2)oc1C | 16.6 µM | 52.5 µM | 

Structure (SMILES) | EC50 | IC50 | outcome
C/C(=N\N=C(/[O-])c1ccccc1)c1cccc(/C(C)=N/N=C(\[O-])c2ccccc2)n1.O.[Ni+2] | > 100 µM | > 100 µM | 
CCN1CCCC(C#N)(c2ccccc2)CC1 (configuration not stated) | > 933 µM | 501 µM | 
Cc1cccc(C)c1NC(=S)NC=C(C(N)=O)C(N)=O | > 200 µM | > 200 µM | 
NC(N)=NCCCC(NC(=O)OCCCCCn1ccc(N)nc1=O)C(=O)O (configuration not stated) | > 200 µM | > 200 µM | 
CC(=O)SCC1CC[C@]2(C)C3CC[C@]4(C)C(C(C)CCC(=O)O)CCC4[C@@H]3CC[C@@H]2C1 (some centres not stated) | > 5.89 µM | > 5.89 µM | 
O=C(C/C(=N/O)C(F)(F)F)c1cccs1 | > 200 µM | > 200 µM | 
CN(C)c1ccc(/C=C(\C#N)c2nc(-c3cc4ccccc4oc3=O)cs2)cc1 | 9.77 µM | > 100 µM | 
CCCCOC(=O)CC(C(=O)OCCCC)C(C(=O)OCCCC)P(=O)(OCCCC)OCCCC (configuration not stated) | > 26.3 µM | 17.4 µM | 
CCC(=O)[O][Bi]([c]1ccccc1)[c]1ccccc1 | > 30.9 µM | 5.89 µM | 
CCOC(=O)C(C#N)C1=CC(=O)C(=O)c2ccc(O)cc21 (configuration not stated) | > 457 µM | 209 µM | 
CC1=NN(c2ccc(S(=O)(=O)O)cc2)C(=O)C1N=Nc1ccc(-c2ccc(N=Nc3ccc(OS(=O)(=O)c4ccc(C)cc4)cc3)c(S(=O)(=O)O)c2)cc1 (configuration not stated) | 100 µM | 151 µM | 
COC(=O)C1=CCC[C@H]2C1(C)CCC(C)C21CC(c2ccoc2)OC1=O (some centres not stated) | > 100 µM | 51.3 µM | 
C/C(CC(=O)NCCc1ccccc1)=N\NS(=O)(=O)c1ccc(C)cc1 | > 347 µM | 339 µM | 
O=c1[nH]c2ccccc2c(O)c1-c1ccccc1 | > 200 µM | > 200 µM | 
Nc1nc(Cl)c(N=Nc2ccc(Cl)cc2)c(NCC2(CO)CC(OCc3ccccc3)C2)n1 (configuration not stated) | > 20 µM | 14.5 µM | 
COC(=O)C1C(=O)C(C(=O)OC)C2CCC1N2C (configuration not stated) | > 200 µM | 42.7 µM | 
C[Si](C)(C)C#CC#C[Si](C)(C)C.[Ni].[Ni].[Ni].[Ni].[c-]1[c-][c-][cH-][c-]1.[c-]1[c-][c-][cH-][c-]1.[c-]1[c-][c-][cH-][c-]1.[c-]1[c-][c-][cH-][c-]1 | > 2.09 µM | > 2.09 µM | 
CC(=O)OC1C(O)COC(O[C@H]2CC[C@]34C[C@]35CC[C@]3(C)C([C@@]6(C)CC[C@@H](C(C)(C)O)O6)[C@@H](O)C[C@@]3(C)C5C[C@H](OC3OCC(O)C(O)C3O)[C@H]4C2(C)C)C1OC1OCC(O)C(O)C1O (some centres not stated) | > 200 µM | > 200 µM | 
N=CN=CC(=S)O[C@@H]1C(=O)N2CCC[C@@]23CCCC[C@@H]13 | > 25.1 µM | > 25.1 µM | 
